Measurements taken from patent US8530667B2, “Herbicides” (Syngenta Limited, priority 2007, dated 2013).

Columns and labels:
Type in all cases: in vivo
Setaria faberi (SETFA) [1] = test: Example B post-emergence herbicidal activity, glasshouse pot test; conditions: 312 h, evaluated after 13 days, read-out: Post-emergence activity SETFA (100=total damage to plant; 0=no damage to plant); for pest or weed control at 250 g/ha: rate 250 g/ha; for pest or weed control at 1000 g/ha: rate 1000 g/ha
Protocol: (§1) Seeds of a variety of test species were sown in standard soil in pots. After cultivation for one day (pre-emergence) or after 8 days cultivation (post-emergence) under controlled conditions in a glasshouse (at 24/16° C., day/night; 14 hours light; 65% humidity), the plants were sprayed with an aqueous spray solution derived from the formulation of the technical active ingredient in acetone/water (50:50) solution containing 0.5% Tween 20 (polyoxyethelyene sorbitan monolaurate, CAS RN 9005-64-5). The test plants were then grown in a glasshouse under controlled conditions in a glasshouse (at 24/16° C., day/night; 14 hours light; 65% humidity) and watered twice daily. After 13 days for pre and post-emergence, the test was evaluated (100=total damage to plant; 0=no damage to plant). Alopecurus myosuroides (ALOMY), Avena fatua (AVEFA), Setaria faberi (SETFA), Echinochloa crus-galli (ECHCG) and Amaranthus retoflexus (AMARE)

Avena fatua (AVEFA) [2] = test: as above; conditions: 312 h, evaluated after 13 days, read-out: Post-emergence activity AVEFA (100=total damage to plant; 0=no damage to plant); for pest or weed control at 250 g/ha: rate 250 g/ha; for pest or weed control at 1000 g/ha: rate 1000 g/ha
Protocol: as §1

[3] = system: Echinochloa crus-galli (ECHCG); test: as above; conditions: 312 h, evaluated after 13 days, read-out: Post-emergence activity ECHCG (100=total damage to plant; 0=no damage to plant); for pest or weed control at 250 g/ha: rate 250 g/ha; for pest or weed control at 1000 g/ha: rate 1000 g/ha
Protocol: as §1

[4] = system: Alopecurus myosuroides (ALOMY); test: as above; conditions: 312 h, evaluated after 13 days, read-out: Post-emergence activity ALOMY (100=total damage to plant; 0=no damage to plant); for pest or weed control at 250 g/ha: rate 250 g/ha; for pest or weed control at 1000 g/ha: rate 1000 g/ha
Protocol: as §1

[5] = system: Amaranthus retoflexus (AMARE); test: as above; conditions: Amaranthus retroflexus, 312 h, evaluated after 13 days, read-out: Post-emergence activity AMARE (100=total damage to plant; 0=no damage to plant); for pest or weed control at 250 g/ha: rate 250 g/ha; for pest or weed control at 1000 g/ha: rate 1000 g/ha
Protocol: as §1

Setaria faberi (SETFA) [6] = test: Example B pre-emergence herbicidal activity, glasshouse pot test; conditions: 312 h, Rate 250 g/ha, evaluated after 13 days, read-out: Pre-Emergence Activity SETFA (100=total damage to plant; 0=no damage to plant)
Protocol: as §1

Avena fatua (AVEFA) [7] = test: as above; conditions: 312 h, Rate 250 g/ha, evaluated after 13 days, read-out: Pre-Emergence Activity AVEFA (100=total damage to plant; 0=no damage to plant)
Protocol: as §1

[8] = system: Echinochloa crus-galli (ECHCG); test: as above; conditions: 312 h, Rate 250 g/ha, evaluated after 13 days, read-out: Pre-Emergence Activity ECHCG (100=total damage to plant; 0=no damage to plant)
Protocol: as §1

[9] = system: Alopecurus myosuroides (ALOMY); test: as above; conditions: 312 h, Rate 250 g/ha, evaluated after 13 days, read-out: Pre-Emergence Activity ALOMY (100=total damage to plant; 0=no damage to plant)
Protocol: as §1

[10] = system: Amaranthus retoflexus (AMARE); test: as above; conditions: Amaranthus retroflexus, 312 h, Rate 250 g/ha, evaluated after 13 days, read-out: Pre-Emergence Activity AMARE (100=total damage to plant; 0=no damage to plant)
Protocol: as §1

SMILES | pest or weed control at 250 g/ha (Setaria faberi (SETFA) [1]) [%] | pest or weed control at 250 g/ha (Avena fatua (AVEFA) [2]) [%] | pest or weed control at 250 g/ha [3] [%] | pest or weed control at 250 g/ha [4] [%] | pest or weed control at 250 g/ha [5] [%] | pest or weed control at 250 g/ha (Setaria faberi (SETFA) [6]) [%] | pest or weed control at 250 g/ha (Avena fatua (AVEFA) [7]) [%] | pest or weed control at 250 g/ha [8] [%] | pest or weed control at 250 g/ha [9] [%] | pest or weed control at 250 g/ha [10] [%] | pest or weed control at 1000 g/ha (Setaria faberi (SETFA) [1]) [%] | pest or weed control at 1000 g/ha (Avena fatua (AVEFA) [2]) [%] | pest or weed control at 1000 g/ha [3] [%] | pest or weed control at 1000 g/ha [4] [%] | pest or weed control at 1000 g/ha [5] [%]
Cc1sc(-c2ccc(OC(F)F)cc2Cl)nc1C1=C(OC(=O)C(C)(C)C)[C@@H]2[C@H](C1=O)[C@H]1CC[C@@H]2O1 (racemic) [Compound P9] | 100 | 90 | 100 | 100 | 0 | 90 | 50 | 90 | 70 | 0 | – | – | – | – | –
Cc1sc(-c2ccc(I)cc2)nc1C1C(=O)[C@@H]2[C@H](C1=O)[C@H]1CC[C@@H]2O1 (some centres unmarked) [Compound T33] | 100 | 100 | 100 | 100 | 60 | 100 | 0 | 100 | 90 | 0 | – | – | – | – | –
CCc1sc(-c2ccc(Br)cn2)nc1C1C(=O)[C@@H]2[C@H](C1=O)[C@H]1CC[C@@H]2O1 (some centres unmarked) [Compound T43] | 100 | 100 | 100 | 90 | 0 | 60 | 0 | 80 | 0 | 0 | – | – | – | – | –
Cc1cc(Br)ccc1-c1nc(C2=C(OC(=O)C(C)(C)C)[C@@H]3[C@H](C2=O)[C@H]2CC[C@@H]3O2)c(C)s1 (racemic) [Compound P7] | 100 | 100 | 100 | 100 | 0 | 100 | 100 | 100 | 100 | 0 | – | – | – | – | –
Cc1ccc(-c2nc(C3C(=O)[C@@H]4[C@H](C3=O)[C@H]3CC[C@@H]4O3)c(C)s2)cc1 (some centres unmarked) [Compound T20] | 100 | 100 | 100 | 90 | 0 | 80 | 60 | 70 | 50 | 0 | – | – | – | – | –
CC(=O)OC1=C(c2nc(-c3ccc(OC(F)F)cc3F)sc2C)C(=O)[C@H]2[C@@H]1[C@@H]1CC[C@H]2O1 (racemic) [Compound P10] | 100 | 100 | 100 | 100 | 20 | 100 | 100 | 100 | 90 | 0 | – | – | – | – | –
Cc1[se]c(-c2ccc(Cl)cc2)nc1C1C(=O)[C@@H]2[C@H](C1=O)[C@H]1CC[C@@H]2O1 (some centres unmarked) [Compound T34, 4-[2-(4-chloro-phenyl)-5-methyl-selenazol-4-yl]-10-oxa-tricyclo[5.2.1.0*2,6*]decane-3,5-dione] | – | – | – | – | – | 90 | 20 | 70 | 40 | 0 | – | – | – | – | –
COC(=O)c1ccc(-c2cc(C3C(=O)[C@@H]4[C@H](C3=O)[C@H]3CC[C@@H]4O3)c(C)s2)cc1 (some centres unmarked) [Compound T19] | – | – | – | – | – | – | – | – | – | – | 30 | 0 | 0 | 10 | 20
Cc1cc(Br)ccc1-c1nc(C2C(=O)[C@@H]3[C@H](C2=O)[C@H]2CC[C@@H]3O2)c(C)s1 (some centres unmarked) [Compound T39] | 100 | 100 | 100 | 100 | 0 | 90 | 90 | 80 | 70 | 0 | – | – | – | – | –
Cc1sc(-c2ccc(Br)cn2)nc1C1C(=O)[C@@H]2[C@H](C1=O)[C@H]1CC[C@@H]2O1 (some centres unmarked) [Compound T38] | 100 | 90 | 100 | 90 | 0 | 90 | 0 | 40 | 0 | 0 | – | – | – | – | –
Cc1sc(-c2ccc([S+](C)[O-])cc2)nc1C1C(=O)[C@@H]2[C@H](C1=O)[C@H]1CC[C@@H]2O1 (some centres unmarked) [Compound T49] | 90 | 30 | 100 | 50 | 0 | 90 | 0 | 70 | 20 | 0 | – | – | – | – | –
Cc1sc(-c2ccc(OC(F)F)cc2Cl)nc1C1C(=O)[C@@H]2[C@H](C1=O)[C@H]1CC[C@@H]2O1 (some centres unmarked) [Compound T52] | 100 | 100 | 100 | 100 | 0 | 100 | 90 | 100 | 70 | 0 | – | – | – | – | –
CCc1sc(-c2ccc(Cl)cc2)nc1C1=C(OC(=O)C(C)(C)C)[C@@H]2[C@H](C1=O)[C@H]1CC[C@@H]2O1 (racemic) [Compound P3] | 100 | 100 | 100 | 100 | 0 | – | – | – | – | – | – | – | – | – | –
Cc1sc(-c2cc(C(F)(F)F)n(C)n2)cc1C1C(=O)[C@@H]2[C@H](C1=O)[C@H]1CC[C@@H]2O1 (some centres unmarked) [Compound T18] | – | – | – | – | – | – | – | – | – | – | 40 | 0 | 20 | 20 | 0
CCc1sc(-c2ccc(Cl)cc2)cc1C1C(=O)[C@@H]2[C@H](C1=O)[C@H]1CC[C@@H]2O1 (some centres unmarked) [Compound T17, 4-[5-(4-chloro-phenyl)-2-ethyl-thiophen-3-yl]-10-oxa-tricyclo[5.2.1.0*2,6*]decane-3,5-dione] | – | – | – | – | – | – | – | – | – | – | 100 | 100 | 100 | 100 | 70
